Data set [1] concerns the target human-derived interferon gene stimulating protein (Homo sapiens, UniProt Q86WV6, G230A/H232R/R293Q/R71H). The experiment in a line: THP1-Blue-ISG reporter cell screening for activation of interferon gene stimulating protein and promotion of IFN-β expression. The note with it: 10 μM, THP1-Blue-ISG cells; for Fold change (ratio relative to the control experiment), First experiment / Fold change (ratio relative to the control experiment), Second experiment / Fold change (ratio relative to the control experiment), Average value: 24 hours, OD650; for Fold change (ratio relative to the control experiment), Average value: average of two experiments.

Data set [2] can be described thus: Pharmacokinetic properties in rats. The class given is in vivo.
The mark [3] stands for this setting: rat, plasma, Intravenous (1 mg/kg).

Entries after “also recorded” stand apart in the source; their conditions may differ.

Broadly, the AUC is the area under the concentration-time curve, a measure of exposure. Lower therefore signals low exposure. A word on the MRT: it is the average time that molecules of a dose stay in the body. As usually defined, the clearance is the rate of elimination divided by the concentration. Read a high clearance as efficient removal. In general, half-life refers to the time in which the quantity being followed falls by half. A higher half-life goes with slow decline. As usually defined, the Cmax is the peak of the concentration-time curve.

Sequence of human-derived interferon gene stimulating protein (Q86WV6 whole entry R71H/G230A/H232R/R293Q): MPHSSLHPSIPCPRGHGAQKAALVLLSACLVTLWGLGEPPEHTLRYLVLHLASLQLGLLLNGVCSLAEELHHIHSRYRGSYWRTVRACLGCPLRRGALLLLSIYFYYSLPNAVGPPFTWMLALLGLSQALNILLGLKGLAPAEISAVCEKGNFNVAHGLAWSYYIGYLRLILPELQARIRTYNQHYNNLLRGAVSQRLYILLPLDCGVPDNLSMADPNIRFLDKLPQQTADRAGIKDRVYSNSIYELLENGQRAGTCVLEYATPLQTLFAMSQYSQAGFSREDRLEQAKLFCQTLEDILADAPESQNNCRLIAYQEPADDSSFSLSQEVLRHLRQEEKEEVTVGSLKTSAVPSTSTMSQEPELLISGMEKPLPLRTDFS

On to `COc1cc2cc(C(F)(F)CCC(=O)N(O)C(F)(F)c3ccccc3)sc2cc1OC` [Compound S12], for which, in data set [1], the Judgement entry was “effective (when the Fold change≥2, it is effective)”; the “Fold change (ratio relative to the control experiment), First experiment” value was found to be 22.38; the “Fold change (ratio relative to the control experiment), Second experiment” value is recorded as 31.54; the “Fold change (ratio relative to the control experiment), Average value” was determined as 26.96.

On to `COc1cc2sc(C(F)(F)CCC(=O)O)cc2c(F)c1OC` [Compound S19], for which, in data set [1], the Judgement result was “effective (when the Fold change≥2, it is effective)”; the “Fold change (ratio relative to the control experiment), First experiment” value is 25.73; the “Fold change (ratio relative to the control experiment), Second experiment” value came to 31.81; the “Fold change (ratio relative to the control experiment), Average value” was determined as 28.77.

In the case of `COc1cc2cc(C(F)(F)CCC(=O)N(O)Cc3ccccc3)sc2cc1OC` [Compound S11], in data set [1], the Judgement result is given as “effective (when the Fold change≥2, it is effective)”; the “Fold change (ratio relative to the control experiment), First experiment” value is 20.44; the “Fold change (ratio relative to the control experiment), Second experiment” value was found to be 30.93; the “Fold change (ratio relative to the control experiment), Average value” turned out to be 25.69.

On to `COc1cc2cc(C(F)(F)CCC(=O)OC(C)C)sc2cc1OC` [Compound S3], for which, in data set [1], the Judgement result is reported as “effective (when the Fold change≥2, it is effective)”; the “Fold change (ratio relative to the control experiment), First experiment” value is 24.31; the “Fold change (ratio relative to the control experiment), Second experiment” value amounted to 33.69; the “Fold change (ratio relative to the control experiment), Average value” was found to be 29.00.

Turning to `CO/C1=C(\OC)C/C(F)=c2/cc(C(F)(F)CCC(=O)N(O)C(C)C)s/c2=C/C1` [Compound S21], in data set [1], the Judgement result was “effective (when the Fold change≥2, it is effective)”; the “Fold change (ratio relative to the control experiment), First experiment” value is given as 27.51; the “Fold change (ratio relative to the control experiment), Second experiment” value came to 32.63; the “Fold change (ratio relative to the control experiment), Average value” is 30.07.

Regarding `COc1cc2cc(C(F)(F)CCC(=O)N(O)C(C)C)sc2cc1OC` [Compound S10], in data set [1], the Judgement entry is given as “effective (when the Fold change≥2, it is effective)”; the “Fold change (ratio relative to the control experiment), First experiment” value is 25.41; the “Fold change (ratio relative to the control experiment), Second experiment” value turned out to be 34.36; the “Fold change (ratio relative to the control experiment), Average value” was 29.89.

In the case of `COc1cc2cc(C(F)(F)CCC(=O)N(O)C(F)F)sc2cc1OC` [Compound S7], in data set [1], the Judgement entry was “effective (when the Fold change≥2, it is effective)”; the “Fold change (ratio relative to the control experiment), First experiment” value came to 23.95; the “Fold change (ratio relative to the control experiment), Second experiment” value is 29.94; the “Fold change (ratio relative to the control experiment), Average value” worked out at 26.95.

With `COc1cc2cc(C(F)(F)CCC(=O)N(C)O)sc2cc1OC` [Compound S6], in data set [1], the Judgement result was “effective (when the Fold change≥2, it is effective)”; the “Fold change (ratio relative to the control experiment), First experiment” value was 15.82; the “Fold change (ratio relative to the control experiment), Second experiment” value was 26.22; the “Fold change (ratio relative to the control experiment), Average value” is 21.02.

For the compound `COc1cc2sc(C(F)(F)CCC(=O)O)cc2cc1Br` [Compound S28], in data set [1], the Judgement result is listed as “effective (when the Fold change≥2, it is effective)”; the “Fold change (ratio relative to the control experiment), First experiment” value was 23.75; the “Fold change (ratio relative to the control experiment), Second experiment” value is given as 33.73; the “Fold change (ratio relative to the control experiment), Average value” stood at 28.74.

In the case of `COc1cc2cc(C(F)(F)CCC(=O)N(O)C3CC3)sc2cc1OC` [Compound S15], in data set [1], the Judgement entry was “effective (when the Fold change≥2, it is effective)”; the “Fold change (ratio relative to the control experiment), First experiment” value turned out to be 26.23; the “Fold change (ratio relative to the control experiment), Second experiment” value was found to be 35.12; the “Fold change (ratio relative to the control experiment), Average value” is 30.68.

On to `O=C(O)CCC(F)(F)c1cc2cc3c(cc2s1)OCO3` [Compound S26], for which, in data set [1], the Judgement entry is “effective (when the Fold change≥2, it is effective)”; the “Fold change (ratio relative to the control experiment), First experiment” value was 16.24; the “Fold change (ratio relative to the control experiment), Second experiment” value is 25.03; the “Fold change (ratio relative to the control experiment), Average value” is listed as 20.62.

Regarding `COc1cc2cc(C(F)(F)CCC(=O)NOc3ccccc3)sc2cc1OC` [Compound S18], in data set [1], the Judgement result is reported as “effective (when the Fold change≥2, it is effective)”; the “Fold change (ratio relative to the control experiment), First experiment” value was found to be 17.62; the “Fold change (ratio relative to the control experiment), Second experiment” value stood at 28.34; the “Fold change (ratio relative to the control experiment), Average value” is listed as 22.98.

With `COC1=C(OC)CC=c2cc(C(F)CCCC(=O)N(O)C(C)C)sc2=C1` (stereo not shown) [Compound S24], in data set [1], the Judgement result is on record as “effective (when the Fold change≥2, it is effective)”; the “Fold change (ratio relative to the control experiment), First experiment” value is on record as 15.53; the “Fold change (ratio relative to the control experiment), Second experiment” value is 24.54; the “Fold change (ratio relative to the control experiment), Average value” worked out at 20.04.

Turning to `COc1cc2cc(C(F)(F)CCC(=O)O)sc2cc1OC` [Compound S2], in data set [2] (intravenous injection, versus compound 1a), the “plasma exposure (AUC) of intravenous injection relative to that of 1a” value is “about 4.4 times”. Moreover, in data set [2] (oral or intravenous, versus compound 1a), the “pharmacokinetic properties (T1/2, Cmax, AUC, MRT) compared with compound 1a (in words)” value is listed as “significantly superior; also recorded: significantly better”. In data set [2] (setting [3]), the AUC was 7180 ng·h/mL, the MRT was found to be 51.2 min, the clearance is 2.33 mL/min/kg and the half-life was 40.1 min. In data set [2] (rat, plasma, Oral (3 mg/kg)), this compound had an AUC of 5820 ng·h/mL, a Cmax of 6910 ng/mL, an MRT of 69 min and a half-life of 44.4 min. For the same compound, in data set [1], the Judgement result was “effective (when the Fold change≥2, it is effective)”; the “Fold change (ratio relative to the control experiment), First experiment” value turned out to be 23.95; the “Fold change (ratio relative to the control experiment), Second experiment” value was 25.94; the “Fold change (ratio relative to the control experiment), Average value” is recorded as 24.95.

`C=Cc1cc2cc(C(F)(F)CCC(=O)O)sc2cc1OC` [Compound S29]: in data set [1], the Judgement entry is “effective (when the Fold change≥2, it is effective)”; the “Fold change (ratio relative to the control experiment), First experiment” value was 25.26; the “Fold change (ratio relative to the control experiment), Second experiment” value came out at 34.05; the “Fold change (ratio relative to the control experiment), Average value” is reported as 29.66.
